Results published in ChEMBL document CHEMBL3091357, “Synthesis and biological evaluation of nimesulide based new class of triazole derivatives as potential PDE4B inhibitors against cancer cells” (Bioorg Med Chem Lett, 2013).
Activity calls are given as the source filed them. No cut-off for these calls is given here.

Legend:
[1] = biological target: T1, 3',5'-cyclic-AMP phosphodiesterase 4B (Homo sapiens, UniProt Q07343); assay: Inhibition of recombinant His-tagged PDE4B1 (unknown origin) expressed in insect Sf9 cells using cAMP as substrate at 30 uM preincubated for 15 mins followed by substrate addition measured after 1 hr by luminescence assay relative to control
T1 sequence (Q07343 whole entry): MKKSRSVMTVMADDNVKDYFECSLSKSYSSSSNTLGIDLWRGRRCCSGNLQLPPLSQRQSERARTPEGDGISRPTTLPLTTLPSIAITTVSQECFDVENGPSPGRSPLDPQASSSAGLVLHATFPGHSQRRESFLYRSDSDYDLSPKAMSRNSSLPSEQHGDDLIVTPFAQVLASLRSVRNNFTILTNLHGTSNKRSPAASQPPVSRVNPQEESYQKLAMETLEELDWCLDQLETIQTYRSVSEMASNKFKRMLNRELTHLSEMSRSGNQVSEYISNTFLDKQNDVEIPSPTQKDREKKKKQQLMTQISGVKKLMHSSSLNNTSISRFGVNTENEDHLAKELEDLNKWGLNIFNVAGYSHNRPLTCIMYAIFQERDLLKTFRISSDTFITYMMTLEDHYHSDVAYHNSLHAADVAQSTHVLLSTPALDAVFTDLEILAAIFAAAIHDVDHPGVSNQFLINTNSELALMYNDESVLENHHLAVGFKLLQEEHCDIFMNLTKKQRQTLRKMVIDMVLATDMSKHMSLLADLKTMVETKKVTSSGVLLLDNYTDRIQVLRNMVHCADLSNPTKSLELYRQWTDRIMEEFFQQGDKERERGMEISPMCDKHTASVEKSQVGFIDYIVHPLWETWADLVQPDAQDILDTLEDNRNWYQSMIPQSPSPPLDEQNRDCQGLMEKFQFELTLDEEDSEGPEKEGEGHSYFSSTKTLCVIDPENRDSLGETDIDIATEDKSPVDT

[2] = system: HCT-15; assay: Cytotoxicity against human HCT15 cells assessed as cell death at 5 ug/mL after 48 hrs by MTT assay relative to control; format: functional; details: HCT-15, 48 h
[3] = system: HCT-15; assay: Cytotoxicity against human HCT15 cells assessed as cell death at 25 ug/mL after 48 hrs by MTT assay relative to control; format: functional; details: HCT-15, 48 h
[4] = system: HCT-15; assay: Cytotoxicity against human HCT15 cells assessed as cell death at 15 ug/mL after 48 hrs by MTT assay relative to control; format: functional; details: HCT-15, 48 h
[5] = system: HCT-15; assay: Cytotoxicity against human HCT15 cells assessed as cell death at 20 ug/mL after 48 hrs by MTT assay relative to control; format: functional; details: HCT-15, 48 h
[6] = system: HCT-15; assay: Cytotoxicity against human HCT15 cells assessed as cell death after 48 hrs by MTT assay; format: functional, cell-based; details: HCT-15, 48 h
[7] = system: HCT-15; assay: Cytotoxicity against human HCT15 cells assessed as cell death at 10 ug/mL after 48 hrs by MTT assay relative to control; format: functional; details: HCT-15, 48 h
[8] = biological target: T1, 3',5'-cyclic-AMP phosphodiesterase 4B; assay: Inhibition of recombinant His-tagged PDE4B1 (unknown origin) expressed in insect Sf9 cells using cAMP as substrate preincubated for 15 mins followed by substrate addition measured after 1 hr by luminescence assay

## CS(=O)(=O)Nc1ccc([N+](=O)[O-])cc1Oc1ccccc1
[1]
  inhibition: inactive

## Cc1ccc(-c2cn(CC(=O)Nc3ccc(NS(C)(=O)=O)c(Oc4ccccc4)c3)nn2)cc1
[2]
  mortality at 5 µg/mL: 37%
[3]
  mortality at 25 µg/mL: 53%
[1]
  inhibition: 36%
[4]
  mortality at 15 µg/mL: 45.6%
[5]
  mortality at 20 µg/mL: 49.6%
[6]
  IC50: 21 µg/mL
[7]
  mortality at 10 µg/mL: 40.2%

## CS(=O)(=O)Nc1ccc(NC(=O)Cn2cc(COc3ccccc3Cl)nn2)cc1Oc1ccccc1
[1]
  inhibition: 42.5%

## COc1ccc(C2CNC(=O)C2)cc1OC1CCCC1 (stereo unspecified)
[1]
  inhibition: 94.1%

## COc1cccc2c1C(=O)c1c(O)c3c(c(O)c1C2=O)C[C@@](O)(C(=O)CO)C[C@@H]3O[C@H]1C[C@H](N)[C@H](O)[C@H](C)O1 [DOXORUBICIN]
[6]
  IC50: 90 nM

## CS(=O)(=O)Nc1ccc(NC(=O)Cn2cc(COc3ccc([N+](=O)[O-])cc3)nn2)cc1Oc1ccccc1
[1]
  inhibition: 47.1%

## CS(=O)(=O)Nc1ccc(NC(=O)Cn2cc(-c3ccccc3)nn2)cc1Oc1ccccc1
[2]
  mortality at 5 µg/mL: 10.8%
[3]
  mortality at 25 µg/mL: 60.1%
[1]
  inhibition: 64.1%
[4]
  mortality at 15 µg/mL: 31%
[5]
  mortality at 20 µg/mL: 42.7%
[6]
  IC50: 22.4 µg/mL
[8]
  IC50: 4920 nM
  inhibition: Dose-dependent effect
[7]
  mortality at 10 µg/mL: 15.2%

## CS(=O)(=O)Nc1ccc(NC(=O)Cn2cc(COc3ccccc3)nn2)cc1Oc1ccccc1
[1]
  inhibition: 51.2%

## CS(=O)(=O)Nc1ccc(NC(=O)Cn2cc(COc3ccc4ccccc4c3)nn2)cc1Oc1ccccc1
[2]
  mortality at 5 µg/mL: 10.6%
[3]
  mortality at 25 µg/mL: 33.6%
[1]
  inhibition: 59.7%
[4]
  mortality at 15 µg/mL: 21.1%
[5]
  mortality at 20 µg/mL: 25.3%
[7]
  mortality at 10 µg/mL: 14.3%

## Cc1ccc(OCc2cn(CC(=O)Nc3ccc(NS(C)(=O)=O)c(Oc4ccccc4)c3)nn2)cc1
[1]
  inhibition: 56.7%

## Cc1cc(OCc2cn(CC(=O)Nc3ccc(NS(C)(=O)=O)c(Oc4ccccc4)c3)nn2)ccc1Cl
[1]
  inhibition: 32.9%

## CS(=O)(=O)Nc1ccc(NC(=O)Cn2cc(COc3ccc(Cl)cc3)nn2)cc1Oc1ccccc1
[1]
  inhibition: 51.3%
